How the values were obtained:
Format in all cases: biochemical
PI3Kalpha = target: T1, PI3Kalpha (Homo sapiens, UniProt P42336); experiment: Human PI3Kα enzyme assay (HTRF); details: for inhibition at 1.11 µM: read-out: PI3Kalpha % inh; for PI3Kalpha % inh: at 1.11 μM
T1 construct: His (N); host or cells: SF9 insect cells (baculovirus)
Outline: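 His-tagged p110α co-expressed with p85 in Sf9 cells was reacted for 30 min at room temperature in pH 7.00 Hepes buffer with 10 mM MgCl2. Addition solutions held 25 uM ATP, 3.5 uM di-C8 PI(4,5)P2 and 0.4875 nM enzyme. The reaction was quenched with EDTA/biotin-PIP3 and detected by HTRF (GST-GRP-1 PH domain, streptavidin-XL, Eu anti-GST) after 1 h.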

PI3Kbeta = target: T2, PI3Kbeta (Homo sapiens, UniProt P42338); experiment: Human PI3K beta enzyme assay (HTRF, as for PI3K alpha); details: for inhibition at 1.11 µM: read-out: PI3Kbeta % inh
T2 construct: His (N); host or cells: SF9 insect cells (baculovirus)
Outline: (§1)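 N-His p110β/δ co-expressed with untagged p85 in Sf9, p110γ alone. Enzyme 5.25 nM (β), 0.75 nM (δ), 5 nM (γ), with ATP 25 uM and di-C8 PI(4,5)P2 3.5 uM (added-solution levels), pH 7.00, 30 min RT. HTRF read-out: biotin-PIP3, GST-GRP-1 PH domain, Eu anti-GST, streptavidin-XL.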

PI3Kgamma = target: T3, PI3Kgamma (Homo sapiens, UniProt P48736); experiment: Human PI3K gamma enzyme assay (HTRF, as for PI3K alpha); details: read-out: PI3Kgamma % inh
T3 construct: His (N); host or cells: SF9 insect cells (baculovirus)
Outline: as §1

VPS34 = target: T4, VPS34 (Homo sapiens, UniProt Q8NEB9); experiment: Human VPS34 enzyme assay (Adapta Universal Kinase Assay); details: for inhibition at 1.11 µM: 1 h, read-out: VPS34 % ihn
T4 construct: GST (N); host or cells: SF9 insect cells (baculovirus)
Outline: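 Human VPS34, N-terminally GST-tagged and baculovirus-expressed in Sf9 cells. Solution with 20 uM ATP and 200 uM PI-PS added, then one with 5 nM enzyme (levels in each added solution), in buffer with 2 mM DTT and 2 mM MnCl2; 1 h at room temperature. ADP read by Adapta TR-FRET (Eu anti-ADP antibody, Alexa Fluor 647 tracer).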

PI3Kdelta = target: T5, PI3Kdelta (Homo sapiens, UniProt O00329); experiment: Human PI3K delta enzyme assay (HTRF, as for PI3K alpha); details: read-out: PI3Kdelta % inh
T5 construct: His (N); host or cells: SF9 insect cells (baculovirus)
Outline: as §1

T4 sequence (Q8NEB9 whole entry): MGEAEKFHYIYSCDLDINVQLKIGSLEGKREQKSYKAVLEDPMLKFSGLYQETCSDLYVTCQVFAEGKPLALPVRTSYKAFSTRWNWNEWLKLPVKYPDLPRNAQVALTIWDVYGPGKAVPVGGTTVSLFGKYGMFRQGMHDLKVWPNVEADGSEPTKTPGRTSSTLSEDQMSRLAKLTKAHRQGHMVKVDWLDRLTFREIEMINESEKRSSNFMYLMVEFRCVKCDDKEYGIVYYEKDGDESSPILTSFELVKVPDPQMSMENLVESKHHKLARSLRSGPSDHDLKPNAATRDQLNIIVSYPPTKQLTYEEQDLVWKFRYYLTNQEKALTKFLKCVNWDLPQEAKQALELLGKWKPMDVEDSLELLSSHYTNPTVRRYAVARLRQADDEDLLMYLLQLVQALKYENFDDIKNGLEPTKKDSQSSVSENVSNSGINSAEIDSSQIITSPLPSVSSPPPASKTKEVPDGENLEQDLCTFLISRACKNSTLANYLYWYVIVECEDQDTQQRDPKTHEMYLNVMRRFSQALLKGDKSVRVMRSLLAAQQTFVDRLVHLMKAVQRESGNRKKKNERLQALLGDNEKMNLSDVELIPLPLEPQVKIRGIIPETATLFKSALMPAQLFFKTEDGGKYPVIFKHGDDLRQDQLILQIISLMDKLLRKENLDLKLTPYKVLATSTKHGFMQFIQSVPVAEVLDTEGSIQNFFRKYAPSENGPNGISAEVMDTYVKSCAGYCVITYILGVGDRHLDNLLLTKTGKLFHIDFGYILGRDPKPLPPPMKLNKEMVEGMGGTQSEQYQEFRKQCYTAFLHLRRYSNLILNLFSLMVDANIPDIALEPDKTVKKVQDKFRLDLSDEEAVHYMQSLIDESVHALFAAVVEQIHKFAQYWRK
T1 sequence (P42336 whole entry): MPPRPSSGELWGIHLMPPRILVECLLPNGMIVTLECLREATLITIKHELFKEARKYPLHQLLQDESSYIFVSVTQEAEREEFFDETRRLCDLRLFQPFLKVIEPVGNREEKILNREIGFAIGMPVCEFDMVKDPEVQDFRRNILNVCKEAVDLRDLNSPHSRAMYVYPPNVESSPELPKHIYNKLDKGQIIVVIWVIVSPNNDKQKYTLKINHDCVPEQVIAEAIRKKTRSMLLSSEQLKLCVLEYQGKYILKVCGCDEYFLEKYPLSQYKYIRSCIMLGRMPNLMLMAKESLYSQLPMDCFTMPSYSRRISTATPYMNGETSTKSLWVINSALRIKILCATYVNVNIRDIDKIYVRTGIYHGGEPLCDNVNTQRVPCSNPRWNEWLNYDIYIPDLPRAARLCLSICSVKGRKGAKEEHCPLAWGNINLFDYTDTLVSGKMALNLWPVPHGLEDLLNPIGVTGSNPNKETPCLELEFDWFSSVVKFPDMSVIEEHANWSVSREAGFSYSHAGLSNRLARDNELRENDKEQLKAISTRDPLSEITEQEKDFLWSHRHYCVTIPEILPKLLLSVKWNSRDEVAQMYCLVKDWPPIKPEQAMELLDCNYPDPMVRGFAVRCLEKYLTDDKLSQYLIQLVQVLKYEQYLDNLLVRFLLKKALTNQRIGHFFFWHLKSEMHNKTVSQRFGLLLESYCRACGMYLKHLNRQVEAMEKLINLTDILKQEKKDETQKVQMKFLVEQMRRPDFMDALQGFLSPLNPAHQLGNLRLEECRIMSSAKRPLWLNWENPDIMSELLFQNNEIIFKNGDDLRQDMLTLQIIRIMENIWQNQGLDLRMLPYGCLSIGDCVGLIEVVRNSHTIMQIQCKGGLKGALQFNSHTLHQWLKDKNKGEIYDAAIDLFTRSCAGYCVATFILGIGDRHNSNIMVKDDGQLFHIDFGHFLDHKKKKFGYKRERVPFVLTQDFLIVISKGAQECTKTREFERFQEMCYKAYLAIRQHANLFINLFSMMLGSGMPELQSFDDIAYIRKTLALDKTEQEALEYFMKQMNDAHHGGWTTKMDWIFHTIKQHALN
T1 sequence (P27986 whole entry partner): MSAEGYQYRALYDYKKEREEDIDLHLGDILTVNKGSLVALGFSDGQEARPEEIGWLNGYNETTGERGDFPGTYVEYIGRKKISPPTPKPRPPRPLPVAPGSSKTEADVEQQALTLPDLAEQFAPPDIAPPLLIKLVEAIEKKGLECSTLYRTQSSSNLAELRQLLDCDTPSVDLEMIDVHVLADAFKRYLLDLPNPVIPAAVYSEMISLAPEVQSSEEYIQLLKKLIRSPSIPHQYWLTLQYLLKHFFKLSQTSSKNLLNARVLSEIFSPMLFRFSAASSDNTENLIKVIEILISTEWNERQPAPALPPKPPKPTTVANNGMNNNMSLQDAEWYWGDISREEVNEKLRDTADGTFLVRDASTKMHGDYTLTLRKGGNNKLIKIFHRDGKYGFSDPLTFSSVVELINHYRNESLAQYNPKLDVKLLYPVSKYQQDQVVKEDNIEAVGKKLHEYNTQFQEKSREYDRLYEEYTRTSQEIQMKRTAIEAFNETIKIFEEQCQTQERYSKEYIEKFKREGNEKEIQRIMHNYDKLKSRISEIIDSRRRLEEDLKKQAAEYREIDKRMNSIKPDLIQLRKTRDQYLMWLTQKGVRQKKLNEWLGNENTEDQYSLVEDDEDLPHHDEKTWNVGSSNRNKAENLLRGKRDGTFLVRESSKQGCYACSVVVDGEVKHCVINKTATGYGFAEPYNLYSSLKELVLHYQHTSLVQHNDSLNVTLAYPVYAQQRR
T3 sequence (P48736 whole entry): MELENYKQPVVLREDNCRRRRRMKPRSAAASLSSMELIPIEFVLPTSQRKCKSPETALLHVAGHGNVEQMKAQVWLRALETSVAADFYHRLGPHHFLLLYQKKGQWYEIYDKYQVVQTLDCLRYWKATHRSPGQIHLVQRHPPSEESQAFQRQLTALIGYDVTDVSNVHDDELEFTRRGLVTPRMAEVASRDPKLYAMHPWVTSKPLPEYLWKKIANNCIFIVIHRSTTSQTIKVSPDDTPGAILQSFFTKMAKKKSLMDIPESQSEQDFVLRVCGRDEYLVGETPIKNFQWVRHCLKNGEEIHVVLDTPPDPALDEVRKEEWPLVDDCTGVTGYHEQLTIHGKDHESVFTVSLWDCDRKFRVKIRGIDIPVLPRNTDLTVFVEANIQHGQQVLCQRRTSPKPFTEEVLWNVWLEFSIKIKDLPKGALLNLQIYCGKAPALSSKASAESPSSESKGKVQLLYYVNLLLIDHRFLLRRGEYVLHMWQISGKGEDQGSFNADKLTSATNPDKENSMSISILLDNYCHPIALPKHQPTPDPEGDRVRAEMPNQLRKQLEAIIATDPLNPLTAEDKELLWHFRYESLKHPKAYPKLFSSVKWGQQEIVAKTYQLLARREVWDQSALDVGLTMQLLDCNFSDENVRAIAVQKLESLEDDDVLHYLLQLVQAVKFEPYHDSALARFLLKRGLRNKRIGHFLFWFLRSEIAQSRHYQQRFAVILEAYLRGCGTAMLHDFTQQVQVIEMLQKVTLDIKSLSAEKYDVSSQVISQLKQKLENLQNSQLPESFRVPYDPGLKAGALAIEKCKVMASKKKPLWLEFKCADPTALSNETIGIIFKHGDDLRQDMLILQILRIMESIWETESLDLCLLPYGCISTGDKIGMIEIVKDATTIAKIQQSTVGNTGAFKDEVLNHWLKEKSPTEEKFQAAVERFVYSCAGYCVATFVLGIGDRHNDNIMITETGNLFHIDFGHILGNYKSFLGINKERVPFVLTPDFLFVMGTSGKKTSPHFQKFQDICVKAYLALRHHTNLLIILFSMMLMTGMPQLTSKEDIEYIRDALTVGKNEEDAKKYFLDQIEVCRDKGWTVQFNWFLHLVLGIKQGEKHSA
T5 sequence (O00329 whole entry): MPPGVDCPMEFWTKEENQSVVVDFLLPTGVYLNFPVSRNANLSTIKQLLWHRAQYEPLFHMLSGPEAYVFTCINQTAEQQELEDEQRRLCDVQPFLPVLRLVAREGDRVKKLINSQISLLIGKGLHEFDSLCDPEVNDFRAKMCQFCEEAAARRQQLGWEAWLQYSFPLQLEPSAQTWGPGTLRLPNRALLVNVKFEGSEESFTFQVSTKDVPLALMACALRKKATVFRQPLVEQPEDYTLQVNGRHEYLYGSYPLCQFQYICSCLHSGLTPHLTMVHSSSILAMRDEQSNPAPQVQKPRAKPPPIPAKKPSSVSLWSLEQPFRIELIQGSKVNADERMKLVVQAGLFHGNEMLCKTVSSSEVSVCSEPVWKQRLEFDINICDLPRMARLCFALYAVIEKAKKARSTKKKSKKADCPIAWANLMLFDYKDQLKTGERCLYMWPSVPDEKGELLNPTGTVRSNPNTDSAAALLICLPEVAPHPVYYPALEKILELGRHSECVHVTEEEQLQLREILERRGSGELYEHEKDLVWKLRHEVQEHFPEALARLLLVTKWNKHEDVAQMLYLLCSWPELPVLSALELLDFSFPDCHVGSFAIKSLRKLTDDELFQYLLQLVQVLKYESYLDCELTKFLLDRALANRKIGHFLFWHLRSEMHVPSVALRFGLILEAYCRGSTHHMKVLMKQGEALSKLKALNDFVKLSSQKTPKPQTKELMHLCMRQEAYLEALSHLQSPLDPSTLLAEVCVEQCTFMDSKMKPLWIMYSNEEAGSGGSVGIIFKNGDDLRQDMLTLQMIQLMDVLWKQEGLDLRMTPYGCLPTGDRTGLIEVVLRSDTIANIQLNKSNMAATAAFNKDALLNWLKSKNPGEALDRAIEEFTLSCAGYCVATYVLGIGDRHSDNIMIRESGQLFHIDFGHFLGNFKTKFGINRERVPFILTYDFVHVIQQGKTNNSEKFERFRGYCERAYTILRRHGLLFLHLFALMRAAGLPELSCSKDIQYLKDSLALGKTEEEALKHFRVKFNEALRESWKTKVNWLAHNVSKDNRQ
T5 sequence (P27986 whole entry partner): as the sequence (P27986 whole entry partner) above

inhibition at 1.11 µM (PI3Kalpha) | inhibition at 1.11 µM (PI3Kbeta; at 1.11 μM) | IC50 (PI3Kbeta; read-out: IC50 (inhibit PI3Kbeta)) | inhibition at 1.11 µM (PI3Kgamma) | inhibition at 1.11 µM (VPS34) | inhibition at 1.11 µM (PI3Kdelta) | PI3Kalpha % inh (PI3Kalpha) | PI3Kbeta % inh (PI3Kbeta; at 1.11 μM) | VPS34 % ihn (VPS34; at 1.11 μM) | Compound
12.4% | 96.8% | < 100 nM | 8.6% | 28.5% | 47.9% |  |  |  | CC1=CC(=O)Nc2sc(-c3ccncc3)cc2C1(C)c1ccc(Cl)cc1 (centres unmarked) [Compound 17, 4-(4-chlorophenyl)-4,5-dimethyl-2-pyridin-4-yl-4,8-dihydro-7H-thieno[2,3-b]azepin-7-one]
 |  |  | 45.9% | 36.3% | 87% | 18.03% | 107.54% |  | O=C1NCC(c2ccc(Cl)cc2)c2cc(N3CCOCC3)sc21 (centres unmarked) [Compound 128]
 | 73% |  | 5.88% |  | 34.6% | 5.17% |  | −0.70% | O=C1CCC(O)C(c2ccc(Cl)cc2)c2cc(-c3ccncc3)sc21 (centres unmarked) [Compound 210, 4-(4-chlorophenyl)-5-hydroxy-2-pyridin-4-yl-4,5,6,7-tetrahydro-8H-cyclohepta[b]thiophen-8-one]
26.6% | 101% |  | 35.5% | 6.21% | 81.2% |  |  |  | O=C1CC(c2ccc(Cl)cc2F)c2cc(N3CCOCC3)sc21 (centres unmarked) [Compound 117]
19.7% | 63% |  | 5.03% | 9.51% | 54.6% |  |  |  | CC1(C)C(=O)c2sc(N3CCOCC3)cc2C1(C)c1ccc(Cl)cc1 (racemic) [Compound 118, 4-(4-chlorophenyl)-4,5,5-trimethyl-2-morpholino-4H-cyclopenta[b]thiophen-6(5H)-one]

— patent US8765746B2 (Millennium Pharmaceuticals, Inc., priority 2010, dated 2014)
